Data taken from patent US20040167112A1, “Use of estrogen receptor alpha modulators for the treatment of multiple sclerosis” (Wyeth, priority 2003, published 2004).
“Also recorded” adds a separate entry of the source.

Legend:
[1] = system: experimental autoimmune encephalomyelitis (EAE); assay: EAE induced by adoptive transfer of PLP-primed effector cells: clinical disease; assay type: in vivo, SJL mice; conditions: for onset, incidence and severity of disease (EAE): ovariectomized female SJL recipient mice, compounds daily s.c. or p.o. from 5-7 days before transfer, severity scale 0-6
[2] = system: experimental autoimmune encephalomyelitis (EAE), brain and spinal cord; assay: Histological analysis of brains and spinal cords of EAE mice at peak disease; assay type: in vivo, SJL mice
Experimental: Histological Analysis. At peak disease (14 days PT), mice were euthanized with CO2. […] Brains were cut into three segments (roughly, anterior cerebrum, midbrain and cerebellum) and embedded as a single block. […] A standard H&E (hematoxylin and eosin) glass slide was prepared from each tissue block (brain and spinal cord) from each mouse submitted with two resulting H&E slides per mouse evaluated. Slides were evaluated and lesions seen were graded subjectively for presence (P=present) and/or severity. […] The location of findings, relative to the organ, was denoted as perivascular, periventricular, ependymal or meningeal, and also as focal (in small areas or not throughout the section), or diffuse (throughout the section examined). Focal was defined as very localized and not affecting every structure. Findings not defined as focal were diffuse or affecting every structure (e.g. all vessels). […] Typical murine models of EAE have scattered foci of slight to moderate-sized aggregates of leukocytes and rarely have diffuse infiltrates in the affected tissues.

[3] = system: PLP-primed effector cells (splenocytes); assay: Cytokine production by PLP-primed effector cells upon antigen stimulation in vitro; assay type: cell-based, SJL mice; conditions: compound 1 μM, 5 μg/ml PLP, 3 days
Experimental: To examine in vitro the effect of compounds on cytokine production by PLP-primed effector cells, SJL mice were immunized with PLP emulsified in CFA. After 10 days, spleens were collected and single cell suspensions were made. After lysis of red blood cells, splenocytes were stimulated with 5 μg/ml PLP in the presence of compound for 3 days at 37° C., 5% CO2. Control samples were not stimulated and cultured in medium only (“medium”). Compounds were added at a final concentration of 1 μM. After the 3-day incubation, supernatants were collected and stored at −20° C. Cytokines (TNF-α, IFN-γ, IL-5, IL-4, IL-2) were measured in the supernatants using a Cytometric Bead Array kit.

[4] = system: PLP-primed effector T cells (splenocytes); assay: Proliferation of effector T cells upon antigen (PLP) stimulation, CFSE flow cytometry; assay type: cell-based, SJL mice; conditions: compound 1 μM, 3 days
Source text: Effect of compounds on proliferation of effector T cells upon antigen stimulation To examine the effect of proliferation of effector T cells in vitro in response to PLP stimulation, T-cell proliferation was examined by flow cytometry using the following assay. SJL mice were immunized with PLP emulsified in CFA. After 10 days, spleens were collected and single cell suspensions were made. After lysis of red blood cells, splenocytes were labeled with carboxy fluorescein succinimidyl ester (CFSE). CFSE-labeled cells were then incubated with PLP for 3 days at 37° C., 5% CO2. Compounds were added at a final concentration of 1 μM. To determine the percentage of CD4^+ cells that divided, the CFSE-labeled cells were stained with antibodies specific for the CD4 marker prior to flow cytometric analysis.

[5] = Table III (ER-selective agonists), 14 days PT
[6] = Table III (ER-selective agonists), 14 days PT, grade 0-5
[7] = Table II, 14 days PT, grade 0-5
[8] = Table II, 14 days PT, grade 0 within normal limits to 5 severe

SMILES	onset, incidence and severity of disease (EAE) [1]	Spinal Cord Demyelination: number with finding/total number evaluated [2, 5]	Spinal Cord Meningeal/Perivascular Leukocyte Infiltrates: number with finding/total number evaluated [2, 5]	Brain Meningeal/Perivascular Leukocyte Infiltrates: average severity grade of lesions seen [2, 6]	Brain Meningeal/Perivascular Leukocyte Infiltrates: number of brains with finding/total number evaluated ([2]; Table II, 14 days PT)	Spinal Cord Demyelination: number with finding/total number evaluated ([2]; Table II, 14 days PT)	Spinal Cord Meningeal/Perivascular Leukocyte Infiltrates: number with finding/total number evaluated ([2]; Table II, 14 days PT)	Spinal Cord Meningeal/Perivascular Leukocyte Infiltrates: average severity grade of lesions seen [2, 7]	Brain Meningeal/Perivascular Leukocyte Infiltrates: average severity grade of lesions seen [2, 8]	Brain Meningeal/Perivascular Leukocyte Infiltrates: number of brains with finding/total number evaluated [2, 5]	Spinal Cord Demyelination: average severity grade of lesions seen [2, 6]	Spinal Cord Meningeal/Perivascular Leukocyte Infiltrates: average severity grade of lesions seen [2, 6]	also measured
O=C(c1ccc(OCCN2CCCCC2)cc1)c1c(-c2ccc(O)cc2)sc2cc(O)ccc12 [Raloxifene, raloxifene]	delay in onset as well as decreased incidence and severity of disease; also recorded: delayed onset of disease, as well as decreased incidence and severity	–	–	–	–	–	–	–	–	–	–	–	–
CCCc1c(-c2ccc(O)cc2)nn(-c2ccc(O)cc2)c1-c1ccc(O)cc1 [PPT, propylpyrazole triol]	–	0/4	0/4	1	–	–	–	–	–	–	–	–	–
Cc1c(-c2ccc(O)cc2)n(Cc2ccc(OCCN3CCCCC3)cc2)c2ccc(O)cc12.Cl.O [Compound A]	–	–	–	–	3/5	0/5	1/5	1	2.7	–	–	–	onset, incidence and severity of disease (EAE) ([1]; hydrochloride monohydrate): delay in onset as well as decreased incidence and severity of disease; also recorded: delayed onset of disease, as well as decreased incidence and severity; demyelination in spinal cords ([2]; SERM experiment): no demyelination was detected; amount of inflammatory cells infiltrating the spinal cords and brains ([2]; compared to mice from other treatment groups (text, SERM experiment)): reduction; pathology and leukocyte infiltration in the brains and spinal cords ([2]; conclusions): reduced pathology and leukocyte infiltration; IFN-γ production by effector T cells upon antigen stimulation [3]: suppressed; IL-4 production by effector T cells upon antigen stimulation [3]: concomitant increase; TNF-α production by effector T cells upon antigen stimulation [3]: inhibited; cytokine production by effector cells upon antigen stimulation [3]: decreased cytokine production; proliferation of CD4+ cells upon antigen stimulation [4]: suppressed; proliferation of CD4− cells upon antigen stimulation [4]: suppressed; proliferation of antigen-specific T cells [4]: decreased proliferation
C[C@]12CC[C@@H]3c4ccc(O)cc4C[C@@H](CCCCCCCCC[S+]([O-])CCCC(F)(F)C(F)(F)F)[C@H]3[C@@H]1CC[C@@H]2O (some centres unmarked) [ICI 182,780]	–	–	–	–	–	–	–	–	–	–	–	–	effect of ER antagonist on estrogen-mediated suppression of disease ([1]; mice treated with both E2 and ICI 182,780): abolished the effect of E2 on disease
C=Cc1cc(O)cc2nc(-c3ccc(O)c(F)c3)oc12 [ERβ-041]	–	2/4	2/4	2.3	–	–	–	–	–	4/4	1.5	1.5	–
C[C@]12CC[C@@H]3c4ccc(O)cc4CC[C@H]3[C@@H]1CC[C@@H]2O [Compound E2, 17β-estradiol]	delay in onset as well as decreased incidence and severity of disease	1/4	2/4	1.7	4/4	¾	¾	1.7	2.5	3/4	1	1	Spinal Cord Demyelination: average severity grade of lesions seen [2, 7]: 1.3; Distribution of Brain Lesions [2, 5]: Meningeal
